# From ChEMBL document CHEMBL1142757, “Synthesis and biological evaluation of novel angularly fused polycyclic coumarins” (2005)
# Calls of active or inactive are those of the source. No cut-off for these calls is given here.
# How the values were obtained:
# Rattus norvegicus [1] = experiment: Antiinflammatory activity against Albino rat dosed at 300 mg/kg (3h); format: functional
# Rattus norvegicus [2] = experiment: Antiinflammatory activity against Albino rat dosed at 200 mg/kg (3h); format: functional
# Mus musculus [3] = experiment: Analgesic activity against Swiss albino mice dosed at 400 mg/kg and activity calculated as percentage maximum possible effect (% MPE); format: functional
# Rattus norvegicus [4] = experiment: Antiinflammatory activity against Albino rat dosed at 400 mg/kg (3h); format: functional
# Mus musculus [5] = experiment: Analgesic activity against Swiss albino mice dosed at 300 mg/kg and activity calculated as percentage maximum possible effect (% MPE); format: functional
# Mus musculus [6] = experiment: Analgesic activity against Swiss albino mice dosed at 200 mg/kg and activity calculated as percentage maximum possible effect (% MPE); format: functional
# Rattus norvegicus [7] = experiment: (§1) Antiinflammatory activity against Albino rat dosed at 100 mg/kg (3h); format: functional, organism-based; set-up: dose 100 mg/kg
# Mus musculus [8] = experiment: Analgesic activity against Swiss albino mice dosed at and activity calculated as percentage maximum possible effect (% MPE); format: functional
# Rattus norvegicus [9] = experiment: as §1; format: functional
# Mus musculus [10] = experiment: Analgesic activity against Swiss albino mice dosed at 100 mg/kg and activity calculated as percentage maximum possible effect (% MPE); No activity; format: functional, organism-based; set-up: dose 100 mg/kg
# Rattus norvegicus [11] = experiment: Antiinflammatory activity against Albino rat dosed at 200 mg/kg; format: functional
# Rattus norvegicus [12] = experiment: Antiinflammatory activity against Albino rat dosed at 400 mg/kg; format: functional
# Rattus norvegicus [13] = experiment: Antiinflammatory activity against Albino rat dosed at 300 mg/kg; format: functional
smiles,measurement,setting,value
Cc1ccc2oc(=O)c3cnc4c5ccccc5oc4c3c2c1,inhibition in vivo at 300 mg/kg,Rattus norvegicus [1],96.3%
same,inhibition in vivo at 200 mg/kg,Rattus norvegicus [2],89%
same,MPE,Mus musculus [3],20.9%
same,inhibition in vivo at 400 mg/kg,Rattus norvegicus [4],67.2%
same,MPE,Mus musculus [5],32.9%
same,MPE,Mus musculus [6],20.9%
CC(=O)Oc1ccccc1C(=O)O [ASPIRIN],inhibition,Rattus norvegicus [7],inactive
same,MPE,Mus musculus [8],74.9%
Cc1ccc2c(c1)oc(=O)c1c(C)nc3c4ccccc4oc3c12,inhibition in vivo at 300 mg/kg,Rattus norvegicus [1],88.7%
same,inhibition in vivo at 200 mg/kg,Rattus norvegicus [2],80.7%
same,MPE,Mus musculus [3],18.3%
same,inhibition in vivo at 400 mg/kg,Rattus norvegicus [4],97%
same,MPE,Mus musculus [5],24.9%
same,MPE,Mus musculus [6],22.9%
Cc1nc2c3ccccc3oc2c2c1c(=O)oc1cc(Cl)ccc12,inhibition in vivo at 300 mg/kg,Rattus norvegicus [1],25.9%
same,inhibition in vivo at 200 mg/kg,Rattus norvegicus [2],21.6%
same,MPE,Mus musculus [3],9.2%
same,inhibition in vivo at 400 mg/kg,Rattus norvegicus [4],27.4%
same,MPE,Mus musculus [5],7.3%
same,MPE,Mus musculus [6],4.7%
O=C(O)Cc1ccccc1Nc1c(Cl)cccc1Cl [DICLOFENAC SODIUM],inhibition in vivo at 100 mg/kg,Rattus norvegicus [9],94.5%
same,MPE,Mus musculus [10],inactive
O=c1oc2cc(Cl)ccc2c2c1cnc1c3ccccc3oc12,inhibition in vivo at 300 mg/kg,Rattus norvegicus [1],26.3%
same,inhibition in vivo at 200 mg/kg,Rattus norvegicus [2],19.2%
same,MPE,Mus musculus [3],6.8%
same,inhibition in vivo at 400 mg/kg,Rattus norvegicus [4],29.4%
same,MPE,Mus musculus [5],3.4%
same,MPE,Mus musculus [6],1.8%
Cc1ccc2c(c1)oc(=O)c1cnc3c4ccccc4oc3c12,inhibition in vivo at 200 mg/kg,Rattus norvegicus [11],24.6%
same,MPE,Mus musculus [3],10.8%
same,inhibition in vivo at 400 mg/kg,Rattus norvegicus [12],18.3%
same,MPE,Mus musculus [5],22.9%
same,inhibition in vivo at 300 mg/kg,Rattus norvegicus [13],31.4%
same,MPE,Mus musculus [6],1.3%
CCc1nc2c3ccccc3oc2c2c1c(=O)oc1cc(C)ccc12,inhibition in vivo at 300 mg/kg,Rattus norvegicus [1],41.7%
same,inhibition in vivo at 200 mg/kg,Rattus norvegicus [2],35.4%
same,MPE,Mus musculus [3],7.1%
same,inhibition in vivo at 400 mg/kg,Rattus norvegicus [4],46.5%
same,MPE,Mus musculus [5],4.9%
same,MPE,Mus musculus [6],2.4%
CCc1nc2c3ccccc3oc2c2c1c(=O)oc1cc(OC)ccc12,inhibition in vivo at 300 mg/kg,Rattus norvegicus [1],78.1%
same,inhibition in vivo at 200 mg/kg,Rattus norvegicus [2],35.7%
same,MPE,Mus musculus [3],39.5%
same,inhibition in vivo at 400 mg/kg,Rattus norvegicus [4],67.2%
same,MPE,Mus musculus [5],24.4%
same,MPE,Mus musculus [6],24.3%
